Source: patent publication US8580957B2, “Thetrahydroquinolines derivatives as bromodomain inhibitors” (GlaxoSmithKline LLC, priority 2009, dated 2013)
Structures can show the parent of a compound that is named as a salt. Where two headings read alike, the source gives them in different places.

Columns and labels:
[1] = test system: TNFα levels in LPS stimulated whole blood; experiment: LPS Stimulated Whole Blood Measuring TNFα Levels Assay; format: cell-based; conditions: LPS 200 ng/ml, 24 hours, read-out: pIC50 (TNFα levels) (converted)
Procedure: LPS Stimulated Whole Blood Measuring TNFα Levels Assay
(§1) Activation of monocytic cells by agonists of toll-like receptors such as bacterial lipopolysaccharide (LPS) results in production of key inflammatory mediators including TNFα. Such pathways are widely considered to be central to the pathophysiology of a range of auto-immune and inflammatory disorders.
(§2) Compounds to be tested are diluted to give a range of appropriate concentrations and 1 ul of the dilution stocks is added to wells of a 96 plate. Following addition of whole blood (130 ul) the plates are incubated at 37 degrees (5% CO2) for 30 min before the addition of 10 ul of 2.8 ug/ml LPS, diluted in complete RPMI 1640 (final concentration=200 ng/ml), to give a total volume of 140 ul per well. After further incubation for 24 hours at 37 degrees, 140 ul of PBS are added to each well. The plates are sealed, shaken for 10 minutes and then centrifuged (2500 rpm×10 min). 100 ul of the supernatant are removed and TNFα levels assayed by immunoassay (typically by MesoScale Discovery technology) either immediately or following storage at −20 degrees. Dose response curves for each compound was generated from the data and an IC50 value was calculated.

[2] = test system: LPS induced IL-6 secretion from whole blood; experiment: Measurement of LPS Induced IL-6 Secretion from Whole Blood; format: cell-based; conditions: LPS 200 ng/ml, 24 hours, read-out: pIC50 (IL-6 levels) (converted)
Procedure: Measurement of LPS Induced IL-6 Secretion from Whole Blood
as §1, with “IL-6.” for “TNFα.”
as §2, with “concentrations of which” for “concentrations and”, “the diluted” for “the dilution”, “to” for “to wells of”, “96 well” for “96”, “and IL-6” for “and TNFα”, “degrees. Concentration” for “degrees. Dose”

[3] = test system: Balb/c male mice given a lethal dose of LPS; experiment: In Vivo Mouse Endotoxemia Model; conditions: 15 mg/kg LPS i.p.; compound 10 mg/kg intravenously 90 min later; summed across multiple repeat experiments
Description: In Vivo Mouse Endotoxemia Model
High doses of Endotoxin (bacterial lipopolysaccharide) administered to animals produce a profound shock syndrome including a strong inflammatory response, dysregulation of cardiovascular function, organ failure and ultimately mortality. This pattern of response is very similar to human sepsis and septic shock, where the body's response to a significant bacterial infection can be similarly life threatening.
To test the compounds of the invention groups of eight Balb/c male mice were given a lethal dose of 15 mg/kg LPS by intraperitoneal injection. Ninety minutes later, animals were dosed intravenously with vehicle (20% cyclodextrin 1% ethanol in apyrogen water) or compound (10 mg/kg). The survival of animals was monitored at 4 days.
Numbers of animals surviving at 4 days (summed across multiple repeat experiments)

[4] = test system: Human cell lines (n=33 comprising 15 heme cell lines, 14 breast cell lines and 4 other cell lines); experiment: Oncology Growth Assay (CellTiter-Glo); format: cell-based; conditions: 72 hours
Procedure: Human cell lines (n=33 comprising 15 heme cell lines, 14 breast cell lines and 4 other cell lines) were cultured in RPMI-1640 containing 10% fetal bovine serum, 1000 viable cells per well were plated in 384-well black flat bottom polystyrene plates (Greiner #781086) in 48 μl of culture media. All plates were placed at 5% CO2, 37° C. overnight. The following day one plate was harvested with CellTiter-Glo (CTG, Promega #G7573) for a time equal to 0 (T0) measurement and compound (20 point titration from 14.7 uM to […]) was added to the remaining plates. The final concentration of DMSO in all wells was 0.15%. Cells were incubated for 72 hours or the indicated time and each plate was developed with CellTiter-Glo reagent using a volume equivalent to the cell culture volume in the wells. Plates were shaken for approximately 2 minutes and chemiluminescent signal was read on the Analyst GT (Molecular Devices) or EnVision Plate Reader (Perkin Elmer).
Results were expressed as a percent of the TO and plotted against the compound concentration. The TO value was normalized to 100% and represents the number of cells at time of compound addition and the concentration response data were fit with a 4 parameter curve fit using XLfit software (model 205). The concentration that inhibited cell growth by 50% (gIC50) is the midpoint of the ‘growth window’ (between the TO and DMSO control). The Ymin−T0 value is determined by subtracting the T0 value (100%) from the Ymin value (%) determined from the fit of the concentration response curve. Values from the wells with no cells were subtracted from all samples for background correction.

## CCNC(=O)c1ccc(-c2ccc3c(c2)[C@@H](Nc2ccc(Cl)cc2)C[C@@H](C)N3C(C)=O)cc1 (stereo in doubt) [Example 101, 4-{1-Acetyl-4-[(4-chlorophenyl)amino]-2-methyl-1,2,3,4-tetrahydro-6-quinolinyl}-N-ethylbenzamide]
other
  melting point: 134 °C

## CC(=O)N1c2ccc(-c3ccc(-c4nn[nH]n4)cc3)cc2[C@@H](Nc2ccc(Cl)cc2)C[C@H]1C (stereo in doubt) [Example 121, 1-Acetyl-N-(4-chlorophenyl)-2-methyl-6-[4-(1H-tetrazol-5-yl)phenyl]-1,2,3,4-tetrahydro-4-quinolinamine]
other
  melting point: 250 °C

## CCOC(=O)c1ccc(-c2ccc3c(c2)[C@@H](Nc2ccc(Cl)cc2)C[C@@H](C)N3C(C)=O)cc1 (stereo in doubt) [Example 119, Ethyl 4-{1-acetyl-4-[(4-chlorophenyl)amino]-2-methyl-1,2,3,4-tetrahydro-6-quinolinyl}benzoate]
other
  melting point: 114 °C

## CC(=O)N1c2ccc(-c3ccc(C#N)cc3)cc2[C@@H](Nc2ccc(F)cc2)C[C@H]1C (racemic) [Example 62, 4-{1-acetyl-4-[(4-fluorophenyl)amino]-2-methyl-1,2,3,4-tetrahydro-6-quinolinyl}benzonitrile]
other
  melting point: 140 °C

## CC(=O)N1c2ccc(-c3ccc(CN4CCCCC4)cc3)cc2[C@H](Nc2ccccc2)C[C@@H]1C [Example 164, (2S,4R)-1-Acetyl-2-methyl-N-phenyl-6-[4-(1-piperidinylmethyl)phenyl]-1,2,3,4-tetrahydro-4-quinolinamine]
[1]
  IC50: ≤ 10 µM
[2]
  IC50: ≤ 10 µM

## CC(=O)N1c2ccc(-c3ccc(CN4CCCCC4)cc3)cc2[C@@H](Nc2ccc(F)cn2)C[C@H]1C (racemic) [Example 137, (cis)-1-Acetyl-N-(5-fluoro-2-pyridinyl)-2-methyl-6-[4-(1-piperidinylmethyl)phenyl]-1,2,3,4-tetrahydro-4-quinolinamine formate salt]
[1]
  IC50: ≤ 10 µM
[2]
  IC50: ≤ 10 µM

## CC(=O)N1c2ccc(-c3ccc(C(=O)O)cc3)cc2[C@H](Nc2ccc(Cl)cc2)C[C@@H]1C [Example 6, 4-{(2S,4R)-1-acetyl-4-[(4-chlorophenyl)amino]-2-methyl-1,2,3,4-tetrahydro-6-quinolinyl}benzoic acid]
[3]
  Animals surviving at 4 days (percent): 58%
  Numbers of animals surviving at 4 days: 14/24
[4]; all 33 cell lines, read-out: gIC50 across all cell lines
  IC50: 0.035 to 9.2 µM
[4]; breast cell lines, read-out: gIC50 for breast cell lines
  IC50: 0.04 to 9.2 µM
[4]; heme cell lines, read-out: gIC50 for heme cell lines
  IC50: 0.035 to 0.844 µM
[2]
  IC50: ≤ 10 µM

## CCN(c1ccccc1)[C@H]1C[C@@H](C)N(C(C)=O)c2ccc(-c3ccccc3)cc21 (stereo in doubt) [Example 87, 1-acetyl-N-ethyl-2-methyl-N,6-diphenyl-1,2,3,4-tetrahydro-4-quinolinamine]
[1]
  IC50: ≤ 10 µM
other
  melting point: 121 °C

## CC(=O)N1c2ccc(-c3ccc(CN4CCCCC4)cc3)cc2[C@@H](Nc2ccc(C(F)(F)F)cn2)C[C@H]1C (racemic) [Example 134, (cis)-1-Acetyl-2-methyl-6-[4-(1-piperidinylmethyl)phenyl]-N-[5-(trifluoromethyl)-2-pyridinyl]-1,2,3,4-tetrahydro-4-quinolinamine formate salt]
[1]
  IC50: ≤ 10 µM

## CC(=O)N1c2ccc(-c3ccc(C(=O)O)cc3)cc2[C@@H](Nc2cccc(F)c2)C[C@H]1C [Example 179]
[1]
  IC50: ≤ 10 µM

## CC[C@@H]1C[C@H](Nc2ccccc2)c2cc(-c3ccc(CN4CCCCC4)cc3)ccc2N1C(C)=O (relative stereo) [Example 163, (cis)-1-Acetyl-2-ethyl-N-phenyl-6-[4-(1-piperidinylmethyl)phenyl]-1,2,3,4-tetrahydro-4-quinolinamine formate salt]
[1]
  IC50: ≤ 10 µM

## CC(=O)N1c2ccc(-c3ccc(CN(C)C)cc3)cc2[C@@H](Nc2ccccc2)C[C@H]1C (racemic) [Example 35, 1-acetyl-6-{4-[(dimethylamino)methyl]phenyl}-2-methyl-N-phenyl-1,2,3,4-tetrahydro-4-quinolinamine]
other
  melting point: 90 °C

## CC(=O)N1c2ccc(-c3ccc(C(=O)N4CCOCC4)cc3)cc2C(Nc2ccc(Cl)cc2)CC1C (centres unmarked) [Example 109]
[1]
  IC50: ≤ 10 µM
other
  melting point: 146 °C

## CC(=O)N1c2ccc(-c3ccc(N)nc3)cc2[C@@H](Nc2ccccc2)C[C@H]1C (racemic) [Example 132, (cis)-1-Acetyl-6-(6-amino-3-pyridinyl)-2-methyl-N-phenyl-1,2,3,4-tetrahydro-4-quinolinamine hydrochloride]
[1]
  IC50: ≤ 10 µM

## COC(=O)c1ccc(-c2ccc3c(c2)C(Nc2ccc(C#N)cc2)CC(C)N3C(C)=O)cc1 (centres unmarked) [Example 82]
other
  melting point: 252 °C

## CC(=O)N1c2ccc(-c3ccc(CN4CCCCC4)cc3)cc2[C@@H](Nc2ccc(F)cc2)C[C@H]1C (racemic) [Example 11, 1-Acetyl-2-methyl-N-(4-fluorophenyl)-6-[4-(1-piperidinylmethyl)phenyl]-1,2,3,4-tetrahydro-4-quinolinamine]
other
  melting point: 106 °C

## CC(=O)N1c2ccc(-c3ccc(C(=O)O)cc3)cc2[C@@H](Nc2ccccc2)C[C@H]1C (stereo in doubt) [Example 91, 4-[1-Acetyl-2-methyl-4-(phenylamino)-1,2,3,4-tetrahydro-6-quinolinyl]benzoic acid]
[1]
  IC50: ≤ 10 µM
